What was measured:
PI3Kα = PI3Kα (Homo sapiens (Human), UniProt P42336); test: biochemical; assay type: binding
mTOR = mTOR (Homo sapiens (Human), UniProt P42345); test: biochemical; assay type: binding
[1] = male, SD, rat, in vivo, iv, 2 mg/kg
in vivo [2] = conditions: male, SD, rat, iv, 2 mg/kg
in vivo [3] = conditions: male, SD, rat, po, 4 mg/kg

PI3Kα, sequence (P42336 whole entry): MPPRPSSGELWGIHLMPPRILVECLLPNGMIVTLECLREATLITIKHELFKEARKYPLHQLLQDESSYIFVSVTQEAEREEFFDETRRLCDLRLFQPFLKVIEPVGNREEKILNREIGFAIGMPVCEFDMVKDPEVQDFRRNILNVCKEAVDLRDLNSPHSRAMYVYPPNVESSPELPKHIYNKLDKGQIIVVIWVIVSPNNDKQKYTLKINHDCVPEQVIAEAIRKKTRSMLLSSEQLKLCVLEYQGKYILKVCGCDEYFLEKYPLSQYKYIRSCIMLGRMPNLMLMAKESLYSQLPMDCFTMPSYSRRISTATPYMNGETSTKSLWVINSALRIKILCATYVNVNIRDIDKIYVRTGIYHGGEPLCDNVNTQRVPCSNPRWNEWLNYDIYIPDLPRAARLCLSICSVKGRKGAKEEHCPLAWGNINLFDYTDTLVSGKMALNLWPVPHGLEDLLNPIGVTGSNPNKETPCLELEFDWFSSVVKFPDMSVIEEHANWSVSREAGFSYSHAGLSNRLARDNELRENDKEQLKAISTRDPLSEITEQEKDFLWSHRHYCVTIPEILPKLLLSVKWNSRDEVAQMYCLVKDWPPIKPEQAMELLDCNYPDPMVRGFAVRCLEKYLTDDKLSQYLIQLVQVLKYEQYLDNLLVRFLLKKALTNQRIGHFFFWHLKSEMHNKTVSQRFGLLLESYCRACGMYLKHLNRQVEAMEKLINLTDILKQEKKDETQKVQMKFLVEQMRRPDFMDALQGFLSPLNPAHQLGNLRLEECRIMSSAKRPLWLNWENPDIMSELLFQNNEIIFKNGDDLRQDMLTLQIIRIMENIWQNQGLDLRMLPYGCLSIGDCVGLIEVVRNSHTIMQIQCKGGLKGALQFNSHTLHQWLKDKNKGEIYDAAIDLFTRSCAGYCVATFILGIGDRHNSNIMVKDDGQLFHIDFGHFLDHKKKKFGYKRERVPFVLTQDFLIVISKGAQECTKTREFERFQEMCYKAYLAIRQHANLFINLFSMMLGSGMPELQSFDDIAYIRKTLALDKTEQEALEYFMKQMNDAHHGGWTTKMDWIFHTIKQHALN
PI3Kα, sequence (P27986 whole entry partner): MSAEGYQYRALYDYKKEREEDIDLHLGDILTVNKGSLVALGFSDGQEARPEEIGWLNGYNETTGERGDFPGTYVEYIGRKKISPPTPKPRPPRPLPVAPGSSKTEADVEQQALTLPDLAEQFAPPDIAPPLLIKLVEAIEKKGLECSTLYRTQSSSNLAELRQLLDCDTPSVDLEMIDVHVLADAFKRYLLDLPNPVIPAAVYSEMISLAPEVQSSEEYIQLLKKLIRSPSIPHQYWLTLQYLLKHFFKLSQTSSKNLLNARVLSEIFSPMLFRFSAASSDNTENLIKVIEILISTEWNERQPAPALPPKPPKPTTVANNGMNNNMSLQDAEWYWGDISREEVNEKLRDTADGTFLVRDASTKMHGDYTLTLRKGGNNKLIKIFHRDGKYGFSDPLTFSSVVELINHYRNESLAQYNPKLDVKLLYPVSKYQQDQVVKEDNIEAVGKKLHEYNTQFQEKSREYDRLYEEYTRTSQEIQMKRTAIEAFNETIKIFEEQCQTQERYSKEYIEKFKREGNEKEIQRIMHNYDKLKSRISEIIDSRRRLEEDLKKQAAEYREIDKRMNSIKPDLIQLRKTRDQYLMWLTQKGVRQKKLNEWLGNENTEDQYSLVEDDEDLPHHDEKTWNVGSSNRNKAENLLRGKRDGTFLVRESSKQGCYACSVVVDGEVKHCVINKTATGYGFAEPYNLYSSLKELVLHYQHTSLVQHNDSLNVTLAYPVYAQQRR

SMILES | IC50 (PI3Kα) | IC50 (mTOR) | Cl_obs [1] | Vss_obs [1] | AUC (in vivo [2]) | half-life (in vivo [2]) | AUC (in vivo [3]) | Cmax (in vivo [3]) | Tmax (in vivo [3]) | bioavailability (in vivo [3]) | half-life (in vivo [3])
COc1ccc(-c2ccc3ncc4c(c3n2)N(C2CCN(C(=O)[C@@H](C)O)CC2)C(=O)N(C)C4)cn1 [Compound 86, (R)-1-(1-(2-hydroxypropanoyl)piperidin-4-yl)-9-(6-methoxypyridin-3-yl)-3-methyl-3,4-dihydropyrimido[5,4-c][1,5]naphthyridin-2(1H)-one] | 9.7 nM | 257 nM | 227 mL/min/kg | 3.58 L/kg | 154 ng·h/mL | 12 min | 177 ng·h/mL | 251 ng/mL | 19.8 min | 58% | 62.4 min
COc1ccc(-c2ccc3ncc4c(c3n2)N(C2CCNCC2)C(=O)N(C)C4)cn1 [Compound 114] | 115 nM | 732 nM | – | – | – | – | – | – | – | – | –

Source: US9284315B2, “Three-ring PI3K and/or mTOR inhibitor” (XUANZHU PHARMA CO., LTD., priority 2011, dated 2016)
